Data published in PubChem BioAssay (NCI).
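Each compound was tested at five concentrations against cells in 96-well plates for 48 hours. GI50 marks 50% less growth. TGI is the concentration that stops growth completely.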

Assays:
Experiment in all cases: DTP human tumour cell line panel, 48 h
RPMI-8226 leukemia = system: RPMI-8226 leukemia
CCRF-CEM leukemia = system: CCRF-CEM leukemia
SK-OV-3 ovarian = system: SK-OV-3 ovarian
CAKI-1 renal = system: CAKI-1 renal
HL-60(TB) leukemia = system: HL-60(TB) leukemia
A549 NSCLC = system: A549 NSCLC
DU-145 prostate = system: DU-145 prostate
SF-295 CNS = system: SF-295 CNS
IGROV1 ovarian = system: IGROV1 ovarian
HCT-15 colon = system: HCT-15 colon

| Compound | TGI (RPMI-8226 leukemia) [µM] | TGI (CCRF-CEM leukemia) [µM] | TGI (SK-OV-3 ovarian) [µM] | TGI (CAKI-1 renal) [µM] | TGI (HL-60(TB) leukemia) [µM] | TGI (A549 NSCLC) [µM] | TGI (DU-145 prostate) [µM] | TGI (SF-295 CNS) [µM] | TGI (IGROV1 ovarian) [µM] | TGI (HCT-15 colon) [µM] | GI50 (RPMI-8226 leukemia) [µM] | GI50 (CCRF-CEM leukemia) [µM] | GI50 (CAKI-1 renal) [µM] | GI50 (HL-60(TB) leukemia) [µM] | GI50 (A549 NSCLC) [µM] | GI50 (DU-145 prostate) [µM] | GI50 (SF-295 CNS) [µM] | GI50 (IGROV1 ovarian) [µM] | GI50 (HCT-15 colon) [µM] |
| --- | --- | --- | --- | --- | --- | --- | --- | --- | --- | --- | --- | --- | --- | --- | --- | --- | --- | --- | --- |
| CSc1ccc2c(c1)c(CCN)c(C)n2Cc1ccccc1Cl | 3.26 | 3.89 | 4.28 | 4.1 | 3.2 | 3.18 | 3.04 | 3.26 | 3.25 | 4.45 | – | – | – | – | – | – | – | – | – |
| C=CCOC(=O)Cn1ccc(=O)[nH]c1=O | > 100 | > 100 | > 100 | > 100 | > 100 | > 100 | > 100 | > 100 | > 100 | > 100 | – | – | – | – | – | – | – | – | – |
| COC(=O)c1c2c(cc3c1CC1(Cc4ccccc4C1)C3)CCC2 | 45.8 | 40.9 | > 100 | 78.2 | 69.5 | > 100 | > 100 | 61.7 | > 100 | > 100 | – | – | – | – | – | – | – | – | – |
| COc1cc(/C=C/C(=N\NC(N)=S)c2sc(NNC(C)=O)nc2C)ccc1O | > 100 | > 100 | > 100 | > 100 | > 100 | > 100 | > 100 | > 100 | > 100 | > 100 | – | – | – | – | – | – | – | – | – |
| Nc1ccn(C2CCC(COP(=O)(O)OCC(O)COP(=O)(O)OCC3OC(n4cc(F)c(=O)[nH]c4=O)CC3O)O2)c(=O)n1 (centres undefined) | > 100 | > 100 | > 100 | > 100 | > 100 | > 100 | > 100 | > 100 | > 100 | > 100 | – | – | – | – | – | – | – | – | – |
| C=C(C)CCC1C=[N+]([O-])OC(C)(C)C1(C)C (centres undefined) | > 100 | > 100 | > 100 | > 100 | 73.8 | > 100 | > 100 | > 100 | > 100 | > 100 | – | – | – | – | – | – | – | – | – |
| CC(C)(C)OC(=O)N1N=CCC1c1ccccc1 (centres undefined) | > 100 | > 100 | > 100 | > 100 | > 100 | > 100 | > 100 | > 100 | > 100 | > 100 | – | – | – | – | – | – | – | – | – |
| CCOS(=O)(=O)c1ccc(-c2c3nc(c(-c4ccc(S(=O)(=O)OCC)cc4)c4ccc([nH]4)c(-c4ccc(S(=O)(=O)OCC)cc4)c4nc(c(-c5ccc(S(=O)(=O)OCC)cc5)c5ccc2[nH]5)C=C4)C=C3)cc1 | > 31.6 | > 31.6 | > 31.6 | > 31.6 | > 31.6 | > 31.6 | > 31.6 | > 31.6 | > 100 | > 31.6 | – | – | – | – | – | – | – | – | – |
| CN(C)CC1CCC/C(=C\c2ccc(OC(=O)/C=C/c3ccc(Cl)cc3)cc2)C1=O (centres undefined) | 1.8 | 3.39 | 50 | 5.12 | 3.22 | 21.6 | 25.5 | 19.7 | 3.35 | 6.91 | – | – | – | – | – | – | – | – | – |
| Cc1ccnc(Nc2[nH]c(C(=O)c3ccc(Cl)cc3)c(N)c2C(=S)Nc2ccccc2)c1 | 31.3 | > 100 | 35 | > 100 | 64.6 | 53 | 63.7 | 36.8 | 30.9 | 34.2 | – | – | – | – | – | – | – | – | – |
| C/C(=N\NC(N)=S)c1nc2ncccc2[nH]1 | > 100 | > 100 | > 100 | > 100 | > 79.1 | > 100 | > 100 | > 100 | > 100 | > 100 | – | – | – | – | – | – | – | – | – |
| COC(=O)C12Oc3ccc(-c4ccc5c(c4O)C(O)=C4C(=O)CC(C)C(O)C4(C(=O)OC)O5)c(O)c3C(O)=C1C(=O)CC(C)C2O (centres undefined) | 0.31 | 0.0848 | > 82.1 | 4.54 | 0.319 | > 100 | > 66 | 1.84 | > 100 | > 100 | – | – | – | – | – | – | – | – | – |
| CC(=O)NC(C)(C)C1CCC(C)CC1 (centres undefined) | > 100 | > 100 | > 100 | > 100 | > 100 | > 100 | > 100 | > 100 | > 100 | > 100 | – | – | – | – | – | – | – | – | – |
| COc1ccc([I+]c2ccc(OC)cc2)cc1 | > 100 | > 100 | > 100 | > 100 | > 100 | > 100 | > 100 | > 100 | > 100 | > 100 | 4.16 | 4.98 | > 85.3 | 6.4 | 5.14 | 60.4 | 5.07 | 15.7 | > 100 |
| NC1=Nc2ccccc2Sc2cccc(F)c21 | > 100 | 56.9 | > 100 | > 100 | 88 | > 100 | > 100 | > 100 | > 100 | > 100 | – | – | – | – | – | – | – | – | – |
